Measurements taken from the supplement of paper PMC10307832.

Experiments:
Experiment in all cases: relative viability (nuclei count vs DMSO), 5 days (fraction); higher = more cells survive
R406 + Tozasertib = compound: COc1cc(Nc2ncc(F)c(Nc3ccc4c(n3)NC(=O)C(C)(C)O4)n2)cc(OC)c1OC [R406] + Cc1cc(Nc2cc(N3CCN(C)CC3)nc(Sc3ccc(NC(=O)C4CC4)cc3)n2)n[nH]1 [Tozasertib] (partner 0.1 µM)
How it was run: (§1)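 Lung cancer cell lines were pin-tool dosed in 1536-well plates on the day after seeding, with either a lone drug or a fixed anchor-drug dose plus five library-drug doses (not always all listed) in √10 steps. Nuclei were counted on 4× images after 5 days. Relative viability is the ratio of treated-well to vehicle-well nuclei counts, with each value a median of duplicate plates.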

Daporinad + Pemetrexed = compound: O=C(/C=C/c1cccnc1)NCCCCC1CCN(C(=O)c2ccccc2)CC1 [Daporinad] + Nc1nc2[nH]cc(CCc3ccc(C(=O)N[C@@H](CCC(=O)O)C(=O)O)cc3)c2c(=O)[nH]1 [Pemetrexed] (partner 0.2 µM)
How it was run: as §1

Daporinad + Crizotinib = compound: O=C(/C=C/c1cccnc1)NCCCCC1CCN(C(=O)c2ccccc2)CC1 [Daporinad] + C[C@@H](Oc1cc(-c2cnn(C3CCNCC3)c2)cnc1N)c1c(Cl)ccc(F)c1Cl [Crizotinib] (partner 1 µM)
How it was run: as §1

Daporinad + Navitoclax = compound: O=C(/C=C/c1cccnc1)NCCCCC1CCN(C(=O)c2ccccc2)CC1 [Daporinad] + CC1(C)CCC(c2ccc(Cl)cc2)=C(CN2CCN(c3ccc(C(=O)NS(=O)(=O)c4ccc(N[C@H](CCN5CCOCC5)CSc5ccccc5)c(S(=O)(=O)C(F)(F)F)c4)cc3)CC2)C1 [Navitoclax] (partner 0.5 µM)
How it was run: as §1

Row | Cell Line | relative viability (R406 + Tozasertib; first compound 0.08 µM) | relative viability (R406 + Tozasertib; first compound 0.253 µM) | relative viability (R406 + Tozasertib; first compound 0.8 µM) | relative viability (R406 + Tozasertib; first compound 2.53 µM) | relative viability (R406 + Tozasertib; first compound 8 µM) | relative viability (Daporinad + Pemetrexed; first compound 0.0005 µM) | relative viability (Daporinad + Pemetrexed; first compound 0.001581 µM) | relative viability (Daporinad + Pemetrexed; first compound 0.005 µM) | relative viability (Daporinad + Pemetrexed; first compound 0.01581 µM) | relative viability (Daporinad + Crizotinib; first compound 0.0005 µM) | relative viability (Daporinad + Crizotinib; first compound 0.001581 µM) | relative viability (Daporinad + Crizotinib; first compound 0.005 µM) | relative viability (Daporinad + Crizotinib; first compound 0.01581 µM) | relative viability (Daporinad + Navitoclax; first compound 0.0005 µM) | relative viability (Daporinad + Navitoclax; first compound 0.001581 µM) | relative viability (Daporinad + Navitoclax; first compound 0.005 µM) | relative viability (Daporinad + Navitoclax; first compound 0.01581 µM)
1 | NCI-H2170 | 0.758 | 0.703 | 0.708 | 0.615 | 0.632 | 0.277 | 0.25 | 0.252 | 0.252 | 1.19 | 0.723 | 1.2 | 1.27 | 0.619 | 0.561 | 0.637 | 0.825
2 | NCI-H2085 | 0.83 | 0.892 | 0.872 | 0.632 | 0.379 | 0.843 | – | 0.994 | 1.04 | 0.874 | 0.825 | 0.868 | 0.841 | 1.17 | 1.25 | 1.23 | 1.03
3 | NCI-H838 | 0.247 | 0.327 | 0.248 | 0.254 | 0.217 | 0.249 | 0.262 | 0.172 | 0.179 | 0.886 | 0.92 | 0.959 | 0.675 | 1.15 | 1.23 | 0.928 | 0.624
4 | NCI-H460 | 0.493 | 0.486 | 0.481 | 0.344 | 0.264 | 0.0681 | 0.0617 | 0.0618 | 0.0602 | 1.02 | 0.91 | 1.17 | 0.897 | 1.09 | 1.32 | 0.978 | 0.855
5 | LOU-NH91 | 0.723 | 0.764 | 0.644 | 0.472 | 0.466 | 0.383 | 0.359 | 0.509 | 0.482 | 0.782 | 0.801 | 0.862 | 0.913 | 0.678 | 0.851 | 0.928 | 1.24
6 | NCI-H3122 | 0.491 | 0.415 | 0.34 | 0.328 | 0.45 | 0.199 | 0.185 | 0.185 | 0.203 | 0.237 | 0.29 | 0.261 | 0.238 | 1.01 | 1.02 | 1.02 | 0.987
7 | NCI-H520 | 0.499 | 0.469 | 0.45 | 0.347 | 0.219 | 0.67 | 0.395 | 0.239 | 0.149 | 0.789 | 0.726 | 0.258 | 0.114 | 0.945 | 0.442 | 0.258 | 0.197
8 | NCI-H1734 | 0.294 | 0.272 | 0.262 | 0.26 | 0.206 | 0.473 | 0.422 | 0.425 | 0.353 | 0.713 | 0.715 | 0.737 | 0.464 | 0.845 | 0.96 | 0.903 | 0.601
9 | LXF-289 | 0.192 | 0.178 | 0.197 | 0.183 | 0.067 | 0.837 | 0.978 | 0.937 | 0.889 | 0.784 | 0.899 | 0.848 | 0.854 | 0.868 | 0.951 | 0.971 | 1.02
